Test results taken from patent US20040229817A1, “Inhibitors of Hepatitis C virus, compositions and treatments using the same” (priority 2003, published 2004).
Where two headings read alike, the source gives them in different places.

Assays:
[1] = system: HCV reporter replicon; test: HCV reporter replicon assay, antiviral activity (dual luciferase); assay type: cell-based; details: for EC50: Hepatitis C virus
Description: (§1) All compounds were tested in an HCV reporter replicon assay. Briefly, a reporter replicon containing Huh-7 hepatoma cells was grown in DMEM (Invitrogen, Carlsbad, Calif.) and seeded in 96-well black wall, clear-bottom plates (Costar®; Coming Incorporated). Cells were allowed to settle at 37° C., 5% CO2 for 30 minutes. The compounds were serially diluted in separate 96 well plates and […] of each concentration was added to the appropriate well in triplicate. The plates are incubated at 37° C., 5% CO2 for three days.
(§2) Following three days of incubation, the media was aspirated from the wells and cells are washed with 100 μl PBS. After removing the PBS, 20 μl of 1× Passive Lysis Buffer (Promega Corp., Madison, Wis.) is added to each well, and the cells are allowed to lyse at room temperature for 15 minutes. Antiviral activity and cytotoxicity is measured following lysis using the dual luciferase kit (Promega Corp., Madison, Wis.). The percent antiviral inhibition and percent cytotoxicity for each concentration is calculated after subtracting the background values of media only wells from wells containing cells, and subtratcting 100 from the percent ratio of the value in the compound well to the cell only control well.

[2] = in vitro; assay type: cell-based; details: human, three days incubation
Description: as §1, §2

[3] = Solubility (Sol.) reported with the replicon assay
[4] = 7-pt Assay, value marked (exp), read-out: EC50 (exp)
[5] = Huh-7, 72 h, Extended 8-pt Assay, replicon-containing Huh-7 cells, three days incubation, read-out: EC50
[6] = Huh-7, 72 h, 7-pt Assay, replicon-containing Huh-7 cells, three days incubation, read-out: EC50

SMILES | CC50/EC50 ([1]; 7-pt Assay) | EC50 [1, 4] | EC50 [1, 5] | CC50 at 3 days ([2]; 7-pt Assay) | CC50 at 3 days ([2]; Extended 8-pt Assay) | Sol. ([3]; 7-pt Assay) | Sol. ([3]; 7-pt Assay, unit not given) | Sol. ([3]; Extended 8-pt Assay) | EC50 [1, 6]
CS(=O)(=O)N1CCN(S(=O)(=O)c2ccc(Oc3ccc(F)cc3)cc2)[C@@H](C(=O)NO)C1 [Example 11, (2R)-1-{[4-(4-fluorophenoxy)phenyl]sulfonyl}-N-hydroxy-4-(methylsulfonyl)piperazine-2-carboxamide] | 444 | 27 nM | 49 nM | 12000 nM | 15000 nM | >320 µM | 320 | >320 µM | –
O=C(NO)[C@@H]1CCCC[C@H]1S(=O)(=O)CCc1ccccc1 [Example 5, trans-2-Phenylethanesulfonyl-cyclohexanecarboxylic Acid Hydroxyamide] | 1333 | 240 nM | 310 nM | > 320000 nM | > 320000 nM | >320 µM | 320 | >320 µM | –
COC(=O)c1ccc(NC(=O)[C@H](CC(C)C)NC(=O)[C@@H](CC(=O)NO)c2ccccc2)cc1 [Example 8, methyl 4-({N-[(2S)-4-(hydroxyamino)-4-oxo-2-phenylbutanoyl]-L-leucyl}amino)benzoate] | 218 | – | 1200 nM | > 320000 nM | > 320000 nM | <100 µM | 32 | <320 µM | 1500 nM
CC(=O)N1CCN(S(=O)(=O)c2ccc(Oc3ccccc3)cc2)C(C(=O)NO)C1 (stereo not shown) [Example 9, 4-acetyl-N-hydroxy-1-[(4-phenoxyphenyl)sulfonyl]piperazine-2-carboxamide] | 835 | 97 nM | 18 nM | 81000 nM | 79000 nM | >320 µM | 320 | >320 µM | –
Cc1cc(CSC(C)(C)[C@@H](NS(=O)(=O)c2ccc(Oc3ccc(Br)cc3)cc2)C(=O)NO)no1 [Example 14, N^2-{[4-(4-bromophenoxy)phenyl]sulfonyl}-N^1-hydroxy-3{[(5-methylisoxazol-3-yl)methyl]thio}-D-valinamide] | 49 | – | 1900 nM | 78000 nM | 41000 nM | >320 µM | 320 | <320 µM | 1570 nM
CC(C)(C)OC(=O)N1CCN(S(=O)(=O)c2ccc(Oc3ccccn3)cc2)[C@@H](C(=O)NO)C1 [Example 10, tert-butyl (3R)-3-[(hydroxyamino)carbonyl]-4-{[4-(pyridin-2-yloxy)phenyl]sulfonyl}piperazine-1-carboxylate] | 1937 | 150 nM | 190 nM | 294000 nM | 224000 nM | >320 µM | 320 | >320 µM | –
O=C(NO)C1=C(SCCc2ccc(-c3ccccc3)cc2)CCCC1 [Example 1, 2-(2-Biphenyl-4-yl-ethylsulfanyl)-cyclohex-1-ene-carboxylic Acid Hydroxyamide] | 15 | – | 1600 nM | 32000 nM | 31000 nM | <320 µM | 100 | >320 µM | 2100 nM
CC1(C)SCCN(S(=O)(=O)c2ccc(Oc3ccncc3)cc2)[C@H]1C(=O)NO [Example 12, (3S)—N-hydroxy-2,2-dimethyl-4-{[4-(pyridin-4-yloxy)phenyl]sulfonyl}thiomorpholine-3-carboxamide] | 880 | – | 260 nM | 320000 nM | > 320000 nM | >320 µM | 320 | >320 µM | 360 nM
O=C(NO)[C@@H]1CCCC[C@@H]1SCCc1ccccc1 [Example 3] | 130 | – | 1900 nM | ≥ 320000 nM | 211000 nM | >320 µM | 320 | >320 µM | 2500 nM
O=C(NO)C1CCCCN1S(=O)(=O)c1ccc(Sc2ccncc2)cc1 (stereo not shown) [Example 13, N-hydroxy-1{[4-(pyridin-4-ylthio)phenyl]sulfonyl}piperidine-2-carboxamide] | 667 | – | 350 nM | 293000 nM | 211000 nM | >320 µM | 320 | >320 µM | 440 nM
O=C(NO)[C@H]1CCCC[C@@H]1SCCc1ccc(-c2ccccc2)cc1 (relative stereo) [Example 6, trans-2-(Biphenyl-4-yl-ethylsulfanyl)cyclohexanecarboxylic Acid Hydroxyamide] | 3265 | 34 nM | 50 nM | 111000 nM | 99000 nM | >320 µM | 320 | >320 µM | –
